From ChEMBL document CHEMBL1124302, “Nucleoside conjugates. 10. Synthesis and antitumor activity of 1-beta-D-arabinofuranosylcytosine 5'-diphosphate-1,2-dipalmitins” (J Med Chem, 1988)

Experiments:
Assay type in all cases: functional
Mus musculus [1] = organism: Mus musculus; test: Percentage increase in life span after 17-29 days
Mus musculus [2] = organism: Mus musculus; test: Percentage increase in life span after 17-35 days
Mus musculus [3] = test: No of survivors after 45 days ata dose of 400 mg/kg/day
Mus musculus [4] = test: No of survivors after 45 days ata dose of 80 mg/kg/day
Mus musculus [5] = test: Weight change on day 8 in L1210/ara-C (I) Lymphoid Leukemia in mice( ip implanted) at a dose of 80 mg/kg/day (qd=1-5); settings: route intraperitoneal
Mus musculus [6] = test: Weight change on day 8 in L1210/ara-C (I) Lymphoid Leukemia in mice( ip implanted) at a dose of 400 mg/kg/day (qd=1); settings: route intraperitoneal
Mus musculus [7] = organism: Mus musculus; test: Percentage increase in life span after 8->45 days
Mus musculus [8] = organism: Mus musculus; test: Percentage increase in life span after 8-9 days
Mus musculus [9] = organism: Mus musculus; test: Percentage increase in life span after 29->45 days
Mus musculus [10] = organism: Mus musculus; test: Percentage increase in life span after 35->45 days
Mus musculus [11] = organism: Mus musculus; test: Percentage increase in life span after 7-8 days
Mus musculus [12] = test: No of survivors after 45 dose ata dose of 300 mg/kg/day
Mus musculus [13] = test: No of survivors after 45 dose ata dose of 60 mg/kg/day
Mus musculus [14] = organism: Mus musculus; test: Dose producing greatest increase in life span expressed as optimum dose (L1210/ara-C I) (qd 1,5,9)
Mus musculus [15] = test: No of survivors after 45 days ata dose of 300 60 mg/kg/day
Mus musculus [16] = test: No of survivors after 45 days ata dose of 300 mg/kg/day
Mus musculus [17] = test: No of survivors after 45 dose ata dose of 133 mg/kg/day
Mus musculus [18] = organism: Mus musculus; test: Dose producing greatest increase in life span expressed as optimum dose (L1210/ara-C II) (qd 1)
Mus musculus [19] = test: Weight change on day 8 in L1210/ara-C (I) Lymphoid Leukemia in mice( ip implanted) at a dose of 133 mg/kg/day (qd=1,5,9); settings: route intraperitoneal
Mus musculus [20] = test: Weight change on day 8 in L1210/ara-C (I) Lymphoid Leukemia in mice( ip implanted) at a dose of 300 mg/kg/day (qd=1); settings: route intraperitoneal
Mus musculus [21] = test: Weight change on day 8 in L1210/ara-C (I) Lymphoid Leukemia in mice( ip implanted) at a dose of 60 mg/kg/day (qd=1-5); settings: route intraperitoneal
Mus musculus [22] = organism: Mus musculus; test: Percentage increase in life span after 9-11 days
Mus musculus [23] = organism: Mus musculus; test: Percentage increase in life span after 7-14 days
Mus musculus [24] = test: No of survivors after 45 days ata dose of 19 and 38 mg/kg/day
Mus musculus [25] = test: No of survivors after 45 days ata dose of 95 and 190 mg/kg/day
Mus musculus [26] = test: Weight change on day 8 in L1210/ara-C (I) Lymphoid Leukemia in mice( ip implanted) at a dose of 19 and 38 mg/kg/day (qd=1-5); settings: route intraperitoneal
Mus musculus [27] = test: Weight change on day 8 in L1210/ara-C (I) Lymphoid Leukemia in mice( ip implanted) at a dose of 95 and 190 mg/kg/day (qd=1); settings: route intraperitoneal

CCCCCCCCCCCCCCCC(=O)OC[C@@H](COP(=O)(O)OP(=O)(O)OC[C@H]1O[C@@H](n2ccc(N)nc2=O)[C@@H](O)[C@@H]1O)OC(=O)CCCCCCCCCCCCCCC
ILS (Mus musculus [1]): 121% | ILS (Mus musculus [2]): 100% | No. of survivors (Mus musculus [3]): 0 | No. of survivors (Mus musculus [4]): 0 | Weight change (Mus musculus [5]): -0.48 g mouse-1 | Weight change (Mus musculus [6]): 0.18 g mouse-1

CCCCCCCCCCCCCCCC(=O)OC[C@H](COP(=O)(O)OP(=O)(O)OC[C@H]1O[C@@H](n2ccc(N)nc2=O)[C@@H](O)[C@@H]1O)OC(=O)CCCCCCCCCCCCCCC
ILS (Mus musculus [7]): >400% | ILS (Mus musculus [8]): -11% | ILS (Mus musculus [9]): >400% | ILS (Mus musculus [10]): >374% | ILS (Mus musculus [11]): -11% | No. of survivors (Mus musculus [12]): 4 | No. of survivors (Mus musculus [13]): 5 | Optimal dose (Mus musculus [14]): 133 mg·µM/kg | No. of survivors (Mus musculus [15]): 0 | No. of survivors (Mus musculus [16]): 0 | No. of survivors (Mus musculus [17]): 5 | Optimal dose (Mus musculus [18]): 300 mg·µM/kg | Weight change (Mus musculus [19]): -0.53 g mouse-1 | Weight change (Mus musculus [20]): -0.04 g mouse-1 | Weight change (Mus musculus [21]): -2.72 g mouse-1

CCCCCCCCCCCCCCCC(=O)OC[C@H](COP(=O)(O)O)OC(=O)CCCCCCCCCCCCCCC.Nc1ccn([C@@H]2O[C@H](COP(=O)(O)O)[C@@H](O)[C@@H]2O)c(=O)n1
ILS (Mus musculus [22]): 5% | ILS (Mus musculus [23]): 16% | No. of survivors (Mus musculus [24]): 0 | No. of survivors (Mus musculus [25]): 0 | Weight change (Mus musculus [26]): -1.08 g mouse-1 | Weight change (Mus musculus [27]): -0.5 g mouse-1
